From paper PMC3723849, “Evaluation of Phage Display Discovered Peptides as Ligands for Prostate-Specific Membrane Antigen (PSMA)” (PLoS ONE, 2013)
Residues, ends and D or L forms follow the SMILES beside them. *: point of attachment. Acm = CC(=O)NC*

How the values were obtained:
PSMA-His6 [1] = biological target: T1, PSMA-His6 (Homo sapiens, UniProt Q04609); assay: PSMA enzyme assay (NAAG hydrolysis, Amplex Red glutamate detection); format: biochemical; parameters: A 15-mer library was screened against the soluble ectodomain of PSMA; purchased R&D Systems
Experimental: The glutamic acid/glutamate released from the natural substrate of PSMA, NAAG (N-acetylaspartylglutamate), was analyzed by the fluorescence-based Amplex Red Glutamic Acid/Glutamate Oxidase assay kit (Invitrogen) as previously described, [22], [32], [33]. […] Then NAAG (4 µM, 10 µL) was added to the peptide/PSMA-His6 mixture (37°C, 30 min). The enzymatic reaction was quenched (500 mM NaH2PO4/Na2HPO4, pH 7.4, 10 µL). […] Data was analyzed by non-linear regression with GraphPad Prism.

PSMA-His6 [2] = biological target: T1, PSMA-His6; assay: AlphaScreen competition binding assay
Experimental: The AlphaScreen competition binding assay was performed based on published procedures [29], [30], [31]. […] The mixture was incubated (ambient temperature, 1 h), and then nickel chelate acceptor beads (5 µL, 120 µg/mL) were added followed by a second incubation (dark, ambient temperature, 1 h). Streptavidin donor beads (5 µL, 120 µg/mL) were added for a final incubation (dark, ambient temperature, 30 m). […] Data was analyzed by non-linear regression with GraphPad Prism.
Only when the peptide binds to PSMA (thus bringing the two beads close to each other), can the AlphaScreen (emission) signal be generated, in which case, the singlet oxygen generated by the excitation at 680 nm on the donor bead can transfer energy to the adjacent acceptor bead and subsequently produce an emission signal at 520–620 nm.

[3] = NAAG substrate, PSMA-His6, 37°C, read-out: Enzyme inhibition (footnote symbols: no inhibition observed at the stated concentration)
[4] = highest concentration tested without inhibition, limited by solubility of the peptide, read-out: PSMA enzymatic reaction: no inhibition at the stated concentration

T1 sequence (Q04609 44-750 limits assumed): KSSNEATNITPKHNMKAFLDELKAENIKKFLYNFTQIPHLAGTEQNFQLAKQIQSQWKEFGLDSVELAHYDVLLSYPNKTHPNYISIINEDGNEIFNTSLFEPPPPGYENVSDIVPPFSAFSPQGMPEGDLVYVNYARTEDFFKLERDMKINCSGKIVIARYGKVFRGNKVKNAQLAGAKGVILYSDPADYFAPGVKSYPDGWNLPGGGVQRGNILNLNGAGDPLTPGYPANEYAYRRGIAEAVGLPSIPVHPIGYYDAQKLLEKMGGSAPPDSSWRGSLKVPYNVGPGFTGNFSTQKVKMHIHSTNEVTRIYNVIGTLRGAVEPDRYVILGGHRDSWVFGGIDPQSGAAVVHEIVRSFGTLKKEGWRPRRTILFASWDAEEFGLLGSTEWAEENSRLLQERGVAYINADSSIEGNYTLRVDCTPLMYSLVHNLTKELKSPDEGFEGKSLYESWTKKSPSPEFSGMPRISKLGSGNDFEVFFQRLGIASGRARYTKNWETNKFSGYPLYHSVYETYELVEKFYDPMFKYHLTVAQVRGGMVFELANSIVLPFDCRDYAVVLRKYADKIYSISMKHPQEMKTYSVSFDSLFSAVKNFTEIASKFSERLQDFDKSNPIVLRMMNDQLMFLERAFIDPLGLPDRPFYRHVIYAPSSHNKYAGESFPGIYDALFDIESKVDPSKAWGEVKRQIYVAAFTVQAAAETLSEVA

Row | IC50 (PSMA-His6 [1]; [3]) [µM] | IC50 (PSMA-His6 [1]; [4]) [µM] | IC50 (PSMA-His6 [2]) [µM] | Compound | IC50 (PSMA-His6 [1]; against 1 µM NAAG, peptide pre-incubated with PSMA-His6 37°C 30 min, reaction 37°C 30 min, TBS, fluorescence Ex 530/Em 590, read-out: Enzyme inhibition IC50) [µM]
1 | – | – | – | CC(C)[C@H](NC(=O)[C@H](CO)NC(=O)[C@H](Cc1ccccc1)NC(=O)[C@H](CO)NC(=O)[C@H](Cc1c[nH]cn1)NC(=O)[C@@H](N)CO)C(=O)NCC(=O)N[C@@H](CO)C(=O)NCC(=O)N[C@@H](CC(=O)O)C(=O)N[C@@H](Cc1c[nH]cn1)C(=O)N[C@@H](CO)C(=O)N1CCC[C@H]1C(=O)N[C@@H](Cc1ccccc1)C(=O)N[C@H](C(=O)NCC(=O)NCC(=O)NCC(=O)N[C@@H](CO)C(=O)NCCOCCOCCOCCOCCOCCOCCC(=O)N[C@@H](CSC1CC(=O)N(CCC(=O)NCCCC[C@H](NC(=O)CCN2C(=O)CC(SC[C@H](NC(=O)CCOCCOCCOCCOCCOCCOCCNC(=O)[C@H](CO)NC(=O)CNC(=O)CNC(=O)CNC(=O)[C@@H](NC(=O)[C@H](Cc3ccccc3)NC(=O)[C@@H]3CCCN3C(=O)[C@H](CO)NC(=O)[C@H](Cc3c[nH]cn3)NC(=O)[C@H](CC(=O)O)NC(=O)CNC(=O)[C@H](CO)NC(=O)CNC(=O)[C@@H](NC(=O)[C@H](CO)NC(=O)[C@H](Cc3ccccc3)NC(=O)[C@H](CO)NC(=O)[C@H](Cc3c[nH]cn3)NC(=O)[C@@H](N)CO)C(C)C)[C@@H](C)O)C(N)=O)C2=O)C(=O)NCCCC[C@H](NC(=O)[C@H](CCCCNC(=O)CCN2C(=O)CC(SC[C@H](NC(=O)CCOCCOCCOCCOCCOCCOCCNC(=O)[C@H](CO)NC(=O)CNC(=O)CNC(=O)CNC(=O)[C@@H](NC(=O)[C@H](Cc3ccccc3)NC(=O)[C@@H]3CCCN3C(=O)[C@H](CO)NC(=O)[C@H](Cc3c[nH]cn3)NC(=O)[C@H](CC(=O)O)NC(=O)CNC(=O)[C@H](CO)NC(=O)CNC(=O)[C@@H](NC(=O)[C@H](CO)NC(=O)[C@H](Cc3ccccc3)NC(=O)[C@H](CO)NC(=O)[C@H](Cc3c[nH]cn3)NC(=O)[C@@H](N)CO)C(C)C)[C@@H](C)O)C(N)=O)C2=O)NC(=O)CCN2C(=O)CC(SC[C@H](NC(=O)CCOCCOCCOCCOCCOCCOCCNC(=O)[C@H](CO)NC(=O)CNC(=O)CNC(=O)CNC(=O)[C@@H](NC(=O)[C@H](Cc3ccccc3)NC(=O)[C@@H]3CCCN3C(=O)[C@H](CO)NC(=O)[C@H](Cc3c[nH]cn3)NC(=O)[C@H](CC(=O)O)NC(=O)CNC(=O)[C@H](CO)NC(=O)CNC(=O)[C@@H](NC(=O)[C@H](CO)NC(=O)[C@H](Cc3ccccc3)NC(=O)[C@H](CO)NC(=O)[C@H](Cc3c[nH]cn3)NC(=O)[C@@H](N)CO)C(C)C)[C@@H](C)O)C(N)=O)C2=O)C(=O)NCCC(=O)O)C1=O)C(N)=O)[C@@H](C)O (stereo partly drawn) [(562)4] | 311
2 | > 55.5 | > 55.5 | – | CC(=O)NCSC[C@H](NC(=O)[C@H](CO)NC(=O)[C@H](Cc1ccccc1)NC(=O)[C@H](Cc1ccccc1)NC(=O)[C@H](CO)NC(=O)[C@@H](N)CC(C)C)C(=O)N[C@@H](Cc1c[nH]c2ccccc12)C(=O)N[C@@H](CC(C)C)C(=O)N[C@@H](CCCNC(=N)N)C(=O)N[C@@H](CCCNC(=N)N)C(=O)N[C@@H](CO)C(=O)N[C@@H](Cc1ccccc1)C(=O)N[C@@H](CO)C(=O)N[C@@H](CC(C)C)C(=O)N[C@H](C(N)=O)[C@@H](C)O [Peptide 564] (H-LSFFSC(Acm)WLRRSFSLT-NH2) | –
3 | > 14.5 | > 14.5 | > 4.83 | CC[C@H](C)[C@H](NC(=O)[C@H](CSCNC(C)=O)NC(=O)[C@H](CCCNC(=N)N)NC(=O)[C@H](CCSC)NC(=O)[C@H](CC(C)C)NC(=O)[C@H](Cc1ccccc1)NC(=O)[C@H](CC(C)C)NC(=O)[C@H](CC(C)C)NC(=O)[C@H](Cc1ccccc1)NC(=O)[C@H](CCSC)NC(=O)[C@H](CCCNC(=N)N)NC(=O)[C@H](C)N)C(=O)NCC(=O)N[C@@H](CSCNC(C)=O)C(=O)N[C@@H](Cc1ccc(O)cc1)C(N)=O [Peptide 565] (H-ARMFLLFLMRC(Acm)IGC(Acm)Y-NH2; N-terminus assumed) | –
